The test system of data set [1] is primary cultures of RPE of adult pigs. Briefly: In vitro photoprotection of RPE cells illuminated with blue light in the presence of A2E. The note with it: Sus scrofa, RPE, A2E 30 μM, survival 24 h after illumination; for viability at 5 µM: 5 μM compound; for viability at 10 µM: 10 μM compound; for viability at 20 µM: 20 μM compound. Type of data set: cell-based, pig. The source says:
In addition to better distribution in the target-tissue, selecting new compounds must also be based on good photo-protective activity that limits the loss of the cells of the RPE and thus reducing the retinal degeneration observed during the AMD and other degenerative diseases such as Retinitis pigmentosa and Stargardt's disease. At the cellular level, on cultures of cells the RPE coming from pig retina, Fontaine et al. (2016) have shown that a treatment with norbixin (BIO201) protects the cells of the RPE against apoptosis following an illumination in the presence of A2E (80% survival 24 h after exposure). This same screening test according to the percentage of photoprotection was used so as to determine its modulation by and the chemical compounds derived from norbixin (C) object of the present invention in comparison with the photo-protective effect of norbixin and characterize these modulations from a statical standpoint.
The test in vitro described hereinabove and intended to study the photo-protective effect of norbixin was used so as to quantify the photo-protective effects of the various chemical compounds derived from norbixin (C) on the cells of the RPE illuminated with blue light in the presence of A2E (FIG. 3). The photo-protective effect of the molecules was evaluated in a phototoxicity cellular model induced by treatment by A2E followed by an illumination with blue light. The term “blue radiation” means the radiation corresponding to the blue band of the visible light spectrum, i.e. of a wavelength comprised between 435 and 490 nm. This model uses primary cultures of RPE of adult pigs. The cell survival is quantified thanks to a test of cellular viability. At −48 h the compounds to be tested (in solution at 5 mM in the DMSO) are added to obtain the final concentrations of 1 to 20 μM) then at −19 h of the A2E (final concentration 30 μM) and the cells (time 0 h) are illuminated. 24 h after the survival of the cells is measured. The acquisition of images, as well as the processing thereof, are carried out using a fluorescence microscope controlled by the Metamorph software and a dedicated quantification program. The experiments are conducted on a 96-well microplate in quadruplicate and the experiment is reproduced at least four times. The results are expressed in the form of a ratio representing the number of living cells in the wells treated by the molecules to be tested, divided by the number of living cells in the controlled wells (treated by the dilution medium without A2E). This test made it possible hereinabove to reveal the photo-protective activity of norbixin (Fontaine et al. 2016).

The nature of data set [2]: Pharmacokinetic study via oral administration in mice, plasma concentrations. To be noted: C57BL/6, mouse, in vivo, po, 50 mg/kg. Type of data set: in vivo, mice C57BL/6. As to the method:
(§1) The pharmacokinetic study of the chemical compounds (C) following the oral administration thereof was conducted using mice C57BL/6 (January, 53940 The Genest Saint Isle, France). The chemical compounds derived from norbixin (C) were administered at a dose of 50 mg/kg of body weight. After administration, the blood was sampled at the tail at t=0.25 h; 0.5 h; 1 h; 3 h; 6 h and 8 h. The blood samples were centrifuged and the plasmas taken. The dosage of the plasma samples made it possible to determine pharmacokinetic parameters, namely Cmax, which corresponds to the maximum concentration observed after the administration of the molecule, Tmax which is the time required to reach maximum concentration after administration of the molecule and the AUC: the area under the curve which corresponds to the plasma exposure (FIG. 2).
(§2) The LC-MSMS analysis is carried out with a HPLC 1200 Infinity chain (Agilent Technologies, Santa-Clara, United States), a UV detector and a mass spectrometer QQQ6420 (Agilent Technologies Santa-Clara, United States). The injection volume is 5 μL. The chemical compounds C are eluted on an inverse phase column C18 (2.1*50 mm, particles 3 μm; Ace-C18-Excel, AIT) with a gradient of acetonitrile and water (containing 0.1% formic acid) and a flow rate of 0.3 mL/min. The conditions of the gradient can change according to the chemical compound C analyzed. The UV detector analyzes at 460 nm and the mass spectrometer analyzed in Mode MRM—Positive.
(§3) Table 2 discloses the pharmacokinetic results of the chemical compounds C following the administration p.o. 50 mg/kg in D-α-Tocopheryl polyethylene glycol 1000 succinate (VitE-TPGS) 20% in a sodium bicarbonate buffer (0.1M).

Data set [3] is described as follows: Pharmacokinetic study via oral administration in mice, ocular concentrations. Type of data set: in vivo, mice C57BL/6. The note with it: for Tmax: C57BL/6, mouse, eye, po; for Tmax / Eye CMax: mice, p.o. 50 mg/kg in VitE-TPGS 20% in sodium bicarbonate buffer (0.1M); for Eye Exposure 50 mg/kg p.o. AUC: Table 3, repeats the eye exposure of Table 2. The procedure:
as §1
In parallel, the ocular concentrations of the chemical compounds derived from norbixin (C) were dosed in the following way (FIG. 1): both eyes of each mouse were taken in Precellys tubes and stored at −80° C. until the time of dosing. The eyes are then ground in the Precellys tubes with a bench homogenizer, Fast-prep (Fischer Scientific, Hampton, United States) in a mixture of organic solvents, in a first step with 500 μL of chloroform/methanol (1/1, v/v) then 500 μL of chloroform/dichloromethane (1/1, v/v). The supernatants are recovered at each step and transferred to a 96-well plate of 2 mL.
For the quantification of the chemical compounds C, a calibration curve is carried out with 8 standards (5 to 5,000 ng/mL) in the same organic solvent mixtures and transferred (100 μL) to the 96-well plate of 2 mL.
The supernatants and standards are evaporated in a EZ2 (Genevac, Ipswich, United Kingdom), without heating, then taken with 100 μL of DMSO/methanol (20:80, v/v) before being transferred to a 96-well plate of 200 μL.
as §2, §3

One may read the viability as a read-out of living cells in per cent, often relative to untreated cells. The Cmax is the peak of the concentration-time curve. As a reminder, the Tmax is the time at which the peak concentration occurs. `CC(=C/C=C/C(C)=C/C=C/C=C(C)/C=C/C=C(C)/C=C/C(=O)NCCN1CCOCC1)/C=C/C(=O)O` [C10, 1-[2-morpholinoethanamido](2E,4E,6E,8E,10E,12E,14E,16Z,18E)-4,8,13,17-tetramethylicosa-2,4,6,8,10,12,14,16,18-nonaenedioate]: in data set [1], the viability at 5 µM was determined as 15.5%, the viability at 10 µM is 27.4% and the viability at 20 µM was 80.3%. Moreover, in data set [2], the maximum concentration (Cmax) came out at 30400 ng/mL, the “Plasma Exposure” value was 108.1 µg·h/mL and the Tmax stood at 60 min. Also, in data set [3], the Tmax worked out at 60 min, the “Eye Exposure 50 mg/kg p.o. AUC” value was found to be 533.2 ng · h/eye and the “Eye CMax” value was 64.3 ng/eye.
As to `CC(=C/C=C/C(C)=C/C=C/C=C(C)/C=C/C=C(C)/C=C/C(=O)N1CCC(CO)CC1)/C=C/C(=O)O` [C14, 1-[4-hydroxymethylpiperidinamido](2E,4E,6E,8E,10E,12E,14E,16Z,18E)-4,8,13,17-tetramethylicosa-2,4,6,8,10,12,14,16,18-nonaenedioate], in data set [1], the viability at 5 µM was found to be 3.1%, the viability at 10 µM came out at 46.8% and the viability at 20 µM is 79.3%. Moreover, in data set [2], the Cmax stood at 19000 ng/mL, the “Plasma Exposure” value stood at 162.2 µg·h/mL and the Tmax turned out to be 30 min. Further, in data set [3], the time of peak concentration (Tmax) is 60 min, the “Eye Exposure 50 mg/kg p.o. AUC” value came out at 322.5 ng · h/eye and the “Eye CMax” value worked out at 43.2 ng/eye.
`CC(=C/C=C/C(C)=C/C=C/C=C(C)/C=C/C=C(C)/C=C/C(=O)NCCc1ccc(O)cc1)/C=C/C(=O)O` [C16, 1-[4-hydroxyphenylethanamido](2E,4E,6E,8E,10E,12E,14E,16Z,18E)-4,8,13,17-tetramethylicosa-2,4,6,8,10,12,14,16,18-nonaenedioate]: in data set [1], the viability at 5 µM amounted to 70.2%, the viability at 10 µM amounted to 81.7% and the viability at 20 µM was determined as 26.8%. Further, in data set [2], the concentration peaked (Cmax) at 10500 ng/mL, the “Plasma Exposure” value came out at 13.23 µg·h/mL and the Tmax worked out at 60 min. In addition, in data set [3], the Tmax was 30 min, the “Eye Exposure 50 mg/kg p.o. AUC” value is 8.7 ng · h/eye and the “Eye CMax” value was 7.4 ng/eye.
For the molecule `CC(=C/C=C/C(C)=C/C=C/C=C(C)/C=C/C=C(C)/C=C/C(=O)N1CCC(O)C1)/C=C/C(=O)O` (stereo in doubt) [C9, 1-[(S)-3-hydroxypyrrolidinamido](2E,4E,6E,8E,10E,12E,14E,16Z,18E)-4,8,13,17-tetramethylicosa-2,4,6,8,10,12,14,16,18-nonaenedioate], in data set [1], the viability at 5 µM is 22.1%, the viability at 10 µM worked out at 32% and the viability at 20 µM amounted to 63.7%. For the same molecule, in data set [2], the concentration peaked (Cmax) at 37900 ng/mL, the “Plasma Exposure” value was found to be 342.68 µg·h/mL and the time of peak concentration (Tmax) is 60 min. Also, in data set [3], the time of peak concentration (Tmax) is 60 min, the “Eye Exposure 50 mg/kg p.o. AUC” value is reported as 452.0 ng · h/eye and the “Eye CMax” value came to 53.1 ng/eye.
As for `CC(=C/C=C/C(C)=C/C=C/C=C(C)/C=C/C=C(C)/C=C/C(=O)N1CCC(C(=O)O)CC1)/C=C/C(=O)O` [C18, 1-[4-carboxypiperidinamido](2E,4E,6E,8E,10E,12E,14E,16Z,18E)-4,8,13,17-tetramethylicosa-2,4,6,8,10,12,14,16,18-nonaenedioate], in data set [1], the viability at 5 µM was 27.3%, the viability at 10 µM was 43.1% and the viability at 20 µM was 63.8%. Besides, in data set [2], the concentration peaked (Cmax) at 61600 ng/mL, the “Plasma Exposure” value worked out at 948.84 µg·h/mL and the Tmax came out at 30 min. Further, in data set [3], the Tmax amounted to 120 min, the “Eye Exposure 50 mg/kg p.o. AUC” value was 307.8 ng · h/eye and the “Eye CMax” value turned out to be 27.7 ng/eye.
Consider `CC(=C/C=C/C(C)=C/C=C/C=C(C)/C=C/C=C(C)/C=C/C(=O)N1CCCCC1)/C=C/C(=O)O` [C3, 1-[piperidinamido](2E,4E,6E,8E,10E,12E,14E,16Z,18E)-4,8,13,17-tetramethylicosa-2,4,6,8,10,12,14,16,18-nonaenedioate], for which, in data set [1], the viability at 5 µM was 11.3%, the viability at 10 µM was 68.1% and the viability at 20 µM was determined as 45.1%. In data set [2], the Cmax came to 4050 ng/mL, the “Plasma Exposure” value amounted to 10.37 µg·h/mL and the Tmax is 30 min. Also, in data set [3], the Tmax worked out at 30 min, the “Eye Exposure 50 mg/kg p.o. AUC” value turned out to be 19.1 ng · h/eye and the “Eye CMax” value is 5.1 ng/eye.
On to `CC(=C/C=C/C(C)=C/C=C/C=C(C)/C=C/C=C(C)/C=C/C(=O)N1CCCOCC1)/C=C/C(=O)O` [C5, 1[1,4-oxazepanamido](2E,4E,6E,8E,10E,12E,14E,16Z,18E)-4,8,13,17-tetramethylicosa-2,4,6,8,10,12,14,16,18-nonaenedioate], for which, in data set [1], the viability at 5 µM was determined as 11.3%, the viability at 10 µM was 25.6% and the viability at 20 µM is 36%. In data set [2], the highest concentration (Cmax) is 37700 ng/mL, the “Plasma Exposure” value was 299.9 µg·h/mL and the Tmax was 60 min. In addition, in data set [3], the time of peak concentration (Tmax) turned out to be 30 min, the “Eye Exposure 50 mg/kg p.o. AUC” value is 188.7 ng · h/eye and the “Eye CMax” value worked out at 31.4 ng/eye.
With `COCCNC(=O)/C=C/C(C)=C/C=C/C(C)=C/C=C/C=C(C)/C=C/C=C(C)\C=C\C(=O)O` [C1, 1-[2-methoxyethanamido](2E,4E,6E,8E,10E,12E,14E,16Z,18E)-4,8,13,17-tetramethylicosa-2,4,6,8,10,12,14,16,18-nonaenedioate], in data set [1], the viability at 5 µM was 55%, the viability at 10 µM amounted to 67.7% and the viability at 20 µM came to 77.8%. Also, in data set [2], the Cmax came out at 18700 ng/mL, the “Plasma Exposure” value came out at 52.66 µg·h/mL and the Tmax came to 30 min. In data set [3], the Tmax turned out to be 30 min, the “Eye Exposure 50 mg/kg p.o. AUC” value is listed as 26.6 ng · h/eye and the “Eye CMax” value worked out at 10.7 ng/eye.

Source of the values: patent US12215067B2, “Chemical compounds targeting the eye and use thereof in the treatment of eye diseases” (BIOPHYTIS, priority 2019, dated 2025).
